Experimental data published in patent US20090117083A1, “IMMUNOMODULATORY ALKALOIDS” (M N L PHARMA LIMITED, priority 2004, published 2009).

Legend:
α-D-mannosidase = biological target: T1, α-D-mannosidase (Canavalia ensiformis, UniProt C0HJB3); assay: Glycosidase inhibition: α-D-mannosidase; format: biochemical, Jack beans (Canavalia ensiformis); settings: read-out: % inhibition, mannosidase
T1 construct: purchased Sigma
Procedure: All enzymes were purchased from Sigma, as were the appropriate p-nitrophenyl substrates. Assays were carried out in microtitre plates. Enzymes were assayed in 0.1M citric acid/0.2M di-sodium hydrogen phosphate (McIlvaine) buffers at the optimum pH for the enzyme. All assays were carried out at 20° C.
Endpoint absorbances were read at 405 nm with a Biorad microtitre plate reader (Benchmark). Water was substituted for the inhibitors in the blanks.

[1] = system: glycosidase enzymes of Table 4.1; assay: Glycosidase inhibition screening, whole enzyme panel; format: biochemical; settings: 1 mg/ml
Procedure: (§1) All enzymes were purchased from Sigma, as were the appropriate p-nitrophenyl substrates. Assays were carried out in microtitre plates. Enzymes were assayed in 0.1M citric acid/0.2M di-sodium hydrogen phosphate (McIlvaine) buffers at the optimum pH for the enzyme. All assays were carried out at 20° C. For screening assays the incubation assay consisted of 10 μl of enzyme solution, 10 μl of inhibitor solution (made up in water) and 50 μl of the appropriate 5 mM p-nitrophenyl substrate (3.57 mM final conc.) made up in McIlvaine buffer at the optimum pH for the enzyme.
(§2) The reactions were stopped with 0.4M glycine (pH 10.4) during the exponential phase of the reaction, which was determined at the beginning of the assay using blanks with water, which were incubated for a range of time periods to measure the reaction rate using 5 mM substrate solution. Endpoint absorbances were read at 405 nm with a Biorad microtitre plate reader (Benchmark). Water was substituted for the inhibitors in the blanks.

[2] = system: Influenza vaccine-specific IgG, IgG1 and IgG2a; parameters: species or system Balb/c mice; settings: mouse, in vivo
α-L-fucosidase = biological target: T2, α-L-fucosidase (Bos taurus, UniProt Q2KIM0); assay: Glycosidase inhibition: α-L-fucosidase; format: biochemical, Bovine; settings: 1 mg/ml; read-out: % inhibition, fucosidase
T2 construct: purchased Sigma
T2 sequence (Q2KIM0 23-468): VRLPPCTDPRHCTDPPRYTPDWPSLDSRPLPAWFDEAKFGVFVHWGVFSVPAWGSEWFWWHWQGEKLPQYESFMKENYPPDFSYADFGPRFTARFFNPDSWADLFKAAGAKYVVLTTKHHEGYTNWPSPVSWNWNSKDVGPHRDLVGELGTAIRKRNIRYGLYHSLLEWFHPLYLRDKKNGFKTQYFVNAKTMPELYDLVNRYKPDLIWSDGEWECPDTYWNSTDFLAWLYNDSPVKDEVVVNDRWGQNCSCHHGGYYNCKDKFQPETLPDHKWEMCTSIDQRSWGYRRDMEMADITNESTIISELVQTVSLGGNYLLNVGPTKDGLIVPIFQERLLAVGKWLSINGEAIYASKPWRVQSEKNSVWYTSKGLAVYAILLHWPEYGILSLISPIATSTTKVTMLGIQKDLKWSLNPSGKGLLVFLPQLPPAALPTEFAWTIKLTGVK
Procedure: as §1, §2

β-D-glucosidase = assay: Glycosidase inhibition: β-D-glucosidase, almond; format: biochemical, Almonds (Prunus sp.); settings: 1 mg/ml
Procedure: as §1, §2

spleen cells = assay: Cytokine modulation in spleen cells (IFN-γ); format: cell-based, BALB/c mice; settings: Table 3.1
Procedure: BALB/c male and female mice bred and maintained at the University of Strathclyde under conventional conditions were used at varying age.
Cells suspensions were prepared by using the end of a syringe and grinding the spleen through a wire mesh. The cell suspension was then centrifuged at 1000 rpm for 5 minutes. To remove the erythrocytes, the cell pellet was resuspended in Boyle's solution (Tris 0.17M & Ammonium Chloride 0.16M) and centrifuged again for 5 minutes. The pellet was then washed in medium a further two times, then resuspended in 3 mls medium. A cell count was then carried out.
All spleen cell experiments were carried out in 96-well tissue culture plates. […] Unstimulated wells contained 100 μl of cells and 100 μl of medium. The stimulated wells contained 100 μl of cells plus 50 μl of LPS at 1 μg/ml or 50 μl anti-CD3 at 0.5 μg/ml and 50 μl of medium. The remaining wells contained 100 μl cells, 5 μl of MNLP compound and either 50 μl of anti-CD3 or medium alone.
The appropriate Mabs and standards were used according to the protocol described for IL-12 (described in Example 1, above).

α-D-glucosidase [3] = assay: Glycosidase inhibition: α-D-glucosidase, Bacillus; format: biochemical, Bacillus stearothermophilus; settings: 1 mg/ml
Procedure: as §1, §2

Naringinase = assay: Glycosidase inhibition: Naringinase; format: biochemical, Penecillium decumbens; settings: 1 mg/ml
Procedure: as §1, §2

[4] = system: N-acetyl-β-D-glucosaminidase; assay: Glycosidase inhibition: N-acetyl-β-D-glucosaminidase; format: biochemical, Bovine; settings: 1 mg/ml
Procedure: as §1, §2

α-D-glucosidase [5] = biological target: T3, α-D-glucosidase (Oryza sativa subsp. japonica, UniProt Q653V7); assay: Glycosidase inhibition: α-D-glucosidase, rice; format: biochemical, rice (Oryza sativa); settings: 1 mg/ml; read-out: % inhibition, gluc (rice)
T3 construct: purchased Sigma
Procedure: as §1, §2

dendritic cells = settings: treatment alone
[6] = system: spleen cells from Leishmania major infected BALB/c mice; assay: Th1:Th2 response in non-healing leishmaniasis model, spleen cells ex vivo; format: cell-based; settings: for IFN-γ: Table 10.1

T3 sequence (Q653V7 34-885): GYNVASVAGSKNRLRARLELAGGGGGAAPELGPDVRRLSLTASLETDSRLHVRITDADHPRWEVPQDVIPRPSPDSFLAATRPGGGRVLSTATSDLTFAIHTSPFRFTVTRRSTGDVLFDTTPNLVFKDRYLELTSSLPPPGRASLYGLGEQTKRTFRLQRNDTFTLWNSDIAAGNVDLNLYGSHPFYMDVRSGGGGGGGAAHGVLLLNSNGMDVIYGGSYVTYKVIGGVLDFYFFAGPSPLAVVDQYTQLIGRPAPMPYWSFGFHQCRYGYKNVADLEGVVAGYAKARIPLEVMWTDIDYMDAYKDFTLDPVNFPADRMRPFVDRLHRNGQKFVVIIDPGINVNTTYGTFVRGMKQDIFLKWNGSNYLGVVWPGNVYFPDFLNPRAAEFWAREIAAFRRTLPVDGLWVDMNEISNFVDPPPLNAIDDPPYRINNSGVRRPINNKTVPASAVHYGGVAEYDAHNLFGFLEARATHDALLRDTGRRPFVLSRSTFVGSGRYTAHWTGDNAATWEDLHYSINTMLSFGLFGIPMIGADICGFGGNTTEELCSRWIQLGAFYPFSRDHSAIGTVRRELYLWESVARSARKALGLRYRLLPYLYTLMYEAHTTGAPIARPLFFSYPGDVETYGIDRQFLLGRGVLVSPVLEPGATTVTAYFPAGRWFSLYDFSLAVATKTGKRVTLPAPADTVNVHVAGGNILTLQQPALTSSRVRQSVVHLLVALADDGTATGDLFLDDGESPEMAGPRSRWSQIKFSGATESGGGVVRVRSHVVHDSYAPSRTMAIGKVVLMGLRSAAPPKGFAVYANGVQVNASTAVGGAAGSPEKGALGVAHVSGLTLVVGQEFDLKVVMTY
T1 sequence (C0HJB3 whole entry): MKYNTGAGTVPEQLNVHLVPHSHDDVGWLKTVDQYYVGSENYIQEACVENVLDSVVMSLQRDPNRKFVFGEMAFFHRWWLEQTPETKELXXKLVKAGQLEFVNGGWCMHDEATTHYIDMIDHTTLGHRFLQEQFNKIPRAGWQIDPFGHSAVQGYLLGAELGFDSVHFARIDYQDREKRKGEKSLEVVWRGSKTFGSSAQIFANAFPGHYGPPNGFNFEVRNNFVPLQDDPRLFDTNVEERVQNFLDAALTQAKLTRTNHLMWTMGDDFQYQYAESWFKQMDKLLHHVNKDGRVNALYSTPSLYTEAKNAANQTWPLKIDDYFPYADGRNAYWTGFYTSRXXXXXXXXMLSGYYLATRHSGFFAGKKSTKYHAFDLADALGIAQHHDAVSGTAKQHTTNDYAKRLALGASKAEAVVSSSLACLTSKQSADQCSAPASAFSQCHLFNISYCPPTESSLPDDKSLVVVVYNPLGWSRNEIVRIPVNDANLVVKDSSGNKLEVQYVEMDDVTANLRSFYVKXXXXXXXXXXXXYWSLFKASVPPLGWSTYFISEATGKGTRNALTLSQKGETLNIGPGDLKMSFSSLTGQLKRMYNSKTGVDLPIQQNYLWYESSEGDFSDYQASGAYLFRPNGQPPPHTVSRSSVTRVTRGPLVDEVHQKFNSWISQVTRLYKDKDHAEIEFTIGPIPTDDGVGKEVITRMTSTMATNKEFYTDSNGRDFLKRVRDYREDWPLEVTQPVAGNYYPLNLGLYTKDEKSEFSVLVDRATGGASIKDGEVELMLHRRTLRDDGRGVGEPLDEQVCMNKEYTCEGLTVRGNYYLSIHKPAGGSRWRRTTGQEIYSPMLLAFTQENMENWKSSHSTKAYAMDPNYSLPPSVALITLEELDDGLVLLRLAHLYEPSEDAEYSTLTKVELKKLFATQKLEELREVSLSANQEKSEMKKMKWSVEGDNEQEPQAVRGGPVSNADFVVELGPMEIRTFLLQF

OC[C@H]1[C@@H](O)[C@H](O)[C@H]2[C@@H](O)[C@@H](O)CN21 [3,7-diepi-casuarine (10), (1R,2R,3S,6S,7R,7aR)-3-(hydroxymethyl)-1,2,6,7-tetrahydroxypyrolizidine]
inhibition at 1000 µg/mL (α-D-mannosidase): 8%
inhibition of the enzymes tested [1]: do not significantly inhibit any of the enzymes tested
influenza-specific IgG1 response versus vaccine alone [2]: statistically significant increased
influenza-specific IgG2a responses versus vaccine alone [2]: No significant differences
influenza-specific IgGtotal response versus vaccine alone [2]: statistically significant increased
inhibition at 1000 µg/mL (α-L-fucosidase): 5%
% inhibition, glucosidase (β-D-glucosidase): 5%
IFN-γ (spleen cells; + αCD3): 13.50 ng/mL
IFN-γ (spleen cells; treatment alone): 0.22 ng/mL
% inhibition, gluc (Bacillus) (α-D-glucosidase [3]): −7%
% inhibition, Naringinase (Naringinase): 6%
% inhibition, N-acetyl-β-gluc [4]: −6%
inhibition at 1000 µg/mL (α-D-glucosidase [5]): 7%
IL-2 (dendritic cells): 0.00 units/ml
IFN-γ ([6]; + L. major Ag): 5.5 ng/mL
IFN-γ ([6]; treatment alone): ~0.5 ng/mL
IL-5 ([6]; Table 10.2, + αCD3): 150 pg/mL
Th2-skewed immune response profile ([6]; ex vivo): clearly reversed
